Data from publication PMC11322472, “Enhancing [^177Lu]Lu-DOTA-TATE therapeutic efficacy in vitro by combining it with metronomic chemotherapeutics” (EJNMMI Research, 2024).
Converted amounts (≈) assume the structure as drawn. Where two headings read alike, the source gives them in different places.

Tests used:
[1] = tested on: BON1 cells; assay type: cell-based, human; settings: parental BON1 cells; label = chemotherapeutic pre-treatment; MTT at day 7, N = 3
Experimental: (§1) Excess MTT was then removed. Formazan crystals were dissolved with 50 μL/well in dimethylsulfoxide (DMSO) for 2 min at room temperature (RT) under gentle agitation. Well absorbance at 570 nm was then measured on a UV/V is absorbance microplate reader (SPECTROstar® Nano, BMG LABTECH). Metabolic viability, following signal-to-background correction, was calculated as the percentage signal in treated cells normalised to the signal in untreated cells.

[2] = tested on: U2OS cells; assay type: cell-based, human; settings: parental U2OS cells; label = chemotherapeutic pre-treatment; MTT at day 7, N = 3
Experimental: as §1

[3] = tested on: U2OS + SSTR2A cells; test: Viability after chemotherapeutic agents (GI50, MTT); assay type: cell-based; settings: Homo sapiens, 24 h treatment, further 5 days growth, from fitted curves, N = 3
Experimental: (§2) U2OS/U2OS + SSTR2A and BON1/BON1 + SSTR2A cells were seeded in 96-well plates at 2 × 10^3 and 4 × 10^3 cells/well, respectively, and allowed to adhere overnight in the incubator. Cells were then treated with a range of hydroxyurea, gemcitabine, and triapine concentrations for 24 h. Hydroxyurea in U2OS/U2OS + SSTR2A cells was used at 152 µg/mL for 24 h. Chemotherapeutics were then removed, and cells washed with PBS prior to returning to the incubator in fresh medium. Cells were then grown for a further 5 days post-chemotherapeutics prior to assessing metabolic viability, as described above. Chemotherapeutic concentrations needed to inhibit population growth by 50% (GI50) were then calculated.

[4] = tested on: BON1 + SSTR2A cells; test: as above; assay type: cell-based, human; settings: 24 h treatment, further 5 days growth, from fitted curves
Experimental: as §2

[5] = tested on: U2OS + SSTR2A cells; test: X-ray radiotherapy viability post chemotherapeutics; assay type: cell-based, human; settings: 24 h 2 mM HU, 4 ng/mL GEM, 200 ng/mL TRI, X-ray 0, 2 and 4 Gy, N = 3 (Figure S7)
Experimental: (§3) Cells where then treated with chemotherapeutics for 24 hours at 2 mM HU, 4 ng/mL GEM and 200 ng/mL TRI. Following chemotherapeutics, media was refreshed, and cells were X-ray irradiated at 0 (sham-irradiated), 2 and 4 Gy using the image-guided small animal radiotherapy system, SmART+, X-ray irradiator (Precision X-ray Irradiation). The calibrated dose-rate was 6.1796 Gy.min^-1; the X-ray beam used for treatment was set at a voltage of 225 kV, a current of 20 mA and passed through a 0.3 mm Cu filter. Viability analyses were then carried out as above.

[6] = tested on: U2OS cells; test: as above; assay type: cell-based, human; settings: 24 h 2 mM HU, 4 ng/mL GEM, 200 ng/mL TRI, X-ray 0, 2 and 4 Gy, N = 3 (Figure S7)
Experimental: as §3

[7] = tested on: U2OS + SSTR2A cells; test: [^177Lu]LuCl3 and DOTA-TATE viability (MTT); assay type: cell-based, human; settings: MTT after 7 days
Experimental: 2x10^3 U2OS or U2OS+SSTR2A cells, after treatment for 24 hours with [^177Lu]LuCl3 (0.97 MBq) or DOTA-TATE (25 nM, U2OS+SSTR2A only), were reseeded in technical sextuplet wells in 96-well plates containing a final media volume of 180 µL/well. Dedicated wells with no cells present served as background signal controls. Plates were placed in the incubator and cells allowed to adhere and grow for 7 days. After 7 days, DMEM-HG was aspirated and replaced with 90 µL of basal DMEM-HG containing 0.5 mg/mL MTT. Plates were returned to the incubator for 4 h prior to aspiration of excess MTT. Formazan crystals were then dissolved with 50 µL/well DMSO for 2 minutes at RT under gentle agitation. Well absorbance at 570 nm wavelength was then immediately measured on a UV/Vis absorbance microplate reader (SPECTROstar® Nano, BMG LABTECH). Metabolic viability, following signal background-correction, was calculated as the percentage of signal normalized to the signal of the respective fully-untreated or chemotherapeutic-alone cells.

[8] = tested on: U2OS + SSTR2A cells; test: [^177Lu]LuCl3 uptake; assay type: cell-based, human; settings: 0.97 MBq, 24-hour incubation, N = 3 (Figure S3)
Experimental: (§4) The following day, 0.97 MBq [^177Lu]LuCl3 was added to wells and incubated for 24 hours. […] Data is presented as both percentage uptake of total added activity and normalised as Bq/cell uptake.

[9] = tested on: U2OS cells; test: [^177Lu]LuCl3 uptake; assay type: cell-based, human; settings: 0.97 MBq, 24-hour incubation, N = 3 (Figure S3)
Experimental: as §4

[10] = tested on: U2OS cells; test: [^177Lu]Lu-DOTA-TATE uptake; assay type: cell-based, human; settings: U2OS parental cells, 24-hour incubation, 25 nM DOTA-TATE, 0.74–1.03 MBq, mean ± SD, N = 3–4
Experimental: (§5) 1.5 × 10^5 U2OS/U2OS + SSTR2A or 2 × 10^5 BON1/BON1 + SSTR2A cells were seeded into 6-well plates in medium and allowed to adhere overnight in the incubator. The following day, 0.70–0.93 MBq (U2OS/U2OS + SSTR2A) or 0.75–1.03 MBq (BON1/BON1 + SSTR2A) [^177Lu]Lu-DOTA-TATE was added to wells (25 nM total DOTA-TATE) and incubated for 24 h. Excess [^177Lu]Lu-DOTA-TATE was then removed from wells and pooled together with two PBS washes (“Unbound” fraction). Cell-associated activity was harvested from wells by lysing cells with 0.5 M NaOH solution and pooled with a subsequent PBS wash (“Bound” fraction). Data was presented as percentage added activity (%AA) and activity per cell (Bq/cell).

[11] = tested on: BON1 cells; test: [^177Lu]Lu-DOTA-TATE uptake; assay type: cell-based, human; settings: BON1 parental cells, 24-hour incubation, 25 nM DOTA-TATE, 0.74–1.03 MBq, mean ± SD, N = 3–4
Experimental: as §5

[12] = tested on: BON1 + SSTR2A cells; test: [^177Lu]Lu-DOTA-TATE uptake; assay type: cell-based, human; settings: 24-hour incubation, 25 nM DOTA-TATE, 0.74–1.03 MBq, mean ± SD, N = 3–4
Experimental: as §5
1.5 × 10^5 U2OS/U2OS + SSTR2A or 2 × 10^5 BON1/BON1 + SSTR2A cells were seeded into 6-well plates in DMEM-HG or DMEM/F-12 medium, respectively, and allowed to adhere overnight in the incubator. Cells where then treated with chemotherapeutics for 24 h at the following concentrations: 152 µg/mL hydroxyurea, 4 ng/mL gemcitabine, and 200 ng/mL triapine for U2OS/U2OS + SSTR2A cells; and 152 µg/mL hydroxyurea, 2 ng/mL gemcitabine, and 100 ng/mL triapine for BON1/BON1 + SSTR2A cells. Following a 4 h recovery period after chemotherapeutics, medium was replaced with 1 mL of medium containing [^177Lu]Lu-DOTA-TATE for 24 h at 0.7–0.93 MBq for U2OS/U2OS + SSTR2A cells or 0.75–1.03 MBq for BON1/BON1 + SSTR2A cells. […]

[13] = tested on: U2OS + SSTR2A cells; test: Subcellular localisation of [^177Lu]Lu-DOTA-TATE; settings: no chemotherapeutic (Untreated), 24 h, 25 nM, mean ± SD, N = 3
Experimental: (§6) Subcellular localisation of [^177Lu]Lu-DOTA-TATE in cells followed the protocol for the uptake assays above, except that, following removal of excess [^177Lu]Lu-DOTA-TATE, cells were incubated with ice-cold 0.1 M glycine (pH 2.5) for 10 min prior to pooling with a further PBS wash (“Membrane” fraction). Cells were then detached with Accutase and diluted in medium prior to pelleting and transferring the supernatant to the “Cytoplasm” fraction. The cell pellet was resuspended in ice-cold cell lysis buffer (25 mM KCl, 5 mM MgCl2, 10 mM Tris-HCl, and 0.5% v/v IGEPAL CA-630) and incubated for 15 min. Intact nuclei were pelleted and separated from lysed cells by centrifugation (10,000 g, 3 min) and the supernatant removed and combined with the previous portion of the “Cytoplasm” fraction. Pelleted nuclei were resuspended in phosphate-buffered saline (PBS) and transferred to tubes to gamma counting (“Nuclear” fraction). The percentage distribution of [^177Lu]Lu-DOTA-TATE in cells was then calculated for the membrane, cytoplasm, and nucleus.

[14] = tested on: BON1 + SSTR2A cells; test: Subcellular localisation of [^177Lu]Lu-DOTA-TATE; settings: no chemotherapeutic (Untreated), 24 h, 25 nM, mean ± SD, N = 3
Experimental: as §6

[15] = tested on: U2OS + SSTR2A cells; test: [^177Lu]Lu-DOTA-TATE uptake (with or without chemotherapeutic pre-treatment); settings: 25 nM DOTA-TATE, mean ± SD
Experimental: as §5
1.5 × 10^5 U2OS/U2OS + SSTR2A or 2 × 10^5 BON1/BON1 + SSTR2A cells were seeded into 6-well plates in DMEM-HG or DMEM/F-12 medium, respectively, and allowed to adhere overnight in the incubator. Cells where then treated with chemotherapeutics for 24 h at the following concentrations: 152 µg/mL hydroxyurea, 4 ng/mL gemcitabine, and 200 ng/mL triapine for U2OS/U2OS + SSTR2A cells; and 152 µg/mL hydroxyurea, 2 ng/mL gemcitabine, and 100 ng/mL triapine for BON1/BON1 + SSTR2A cells. Following a 4 h recovery period after chemotherapeutics, medium was replaced with 1 mL of medium containing [^177Lu]Lu-DOTA-TATE for 24 h at 0.7–0.93 MBq for U2OS/U2OS + SSTR2A cells or 0.75–1.03 MBq for BON1/BON1 + SSTR2A cells. […] Uptake and viability studies were then carried out as above.

[16] = Homo sapiens, N = 3, read-out: GI50

## NC(=S)N/N=C/c1ncccc1N [Triapine, triapine]
[1]
  Effect on viability of combining chemotherapeutic with [^177Lu]Lu-DOTA-TATE: did not affect viability
[2]
  Effect on viability of combining chemotherapeutic with [^177Lu]Lu-DOTA-TATE: did not affect viability
[3]
  GI50: 0.12 µg/mL (≈ 0.617 µM)
[4]; [16]
  GI50: 0.327 µg/mL (≈ 1.67 µM)
[5]
  potentiation of X-ray radiation effects by chemotherapeutic pre-treatment (viability): potentiation of radiation effects was seen
[6]
  potentiation of X-ray radiation effects by chemotherapeutic pre-treatment (viability): potentiation of radiation effects was seen

## DOTA-TATE
[7]; U2OS + SSTR2A cells, 25 nM for 24 h, N = 4 (Figure S5)
  metabolic viability after non-radioactive DOTA-TATE: did not reduce metabolic viability

## [177Lu+3].[Cl-].[Cl-].[Cl-] [[^177Lu]LuCl3]
[8]
  Uptake of unchelated [^177Lu]LuCl3: low
[9]
  Uptake of unchelated [^177Lu]LuCl3: low
[7]; SSTR2A-expressing cells, 0.97 MBq for 24 hours, N = 3 (Figure S4)
  metabolic viability after [^177Lu]LuCl3: only minor reductions in metabolic viability

## C[C@@H](O)[C@H](NC(=O)[C@@H]1CSSC[C@H](NC(=O)[C@@H](Cc2ccccc2)NC(=O)CN2CCN(CC(=O)O)CCN(CC(=O)O)CCN(CC(=O)O)CC2)C(=O)N[C@@H](Cc2ccc(O)cc2)C(=O)N[C@H](Cc2c[nH]c3ccccc23)C(=O)N[C@@H](CCCCN)C(=O)N[C@@H]([C@@H](C)O)C(=O)N1)C(=O)O [[^177Lu]Lu-DOTA-TATE, [^177Lu]Lu-[DOTA^0-Tyr^3]octreotate, metal not drawn]
[10]
  Uptake (mBq/cell): 4.4 ± 1.0 mBq/cell
[10]; percentage added activity
  Uptake (%AA): 0.3 ± 0.0 %AA
[11]
  Uptake (mBq/cell): 6.5 ± 6.3 mBq/cell
[11]; percentage added activity
  Uptake (%AA): 0.5 ± 0.3 %AA
[12]
  Uptake (mBq/cell): 111.2 ± 16.5 mBq/cell
[12]; percentage added activity
  Uptake (%AA): 9.6 ± 0.6 %AA
[13]
  Cytoplasm (%) of total uptake of [^177Lu]Lu-DOTA-TATE: 93.5 ± 0.9%
  Membrane (%) of total uptake of [^177Lu]Lu-DOTA-TATE: 4.1 ± 0.6%
  Nucleus (%) of total uptake of [^177Lu]Lu-DOTA-TATE: 2.3 ± 0.4%
[14]
  Cytoplasm (%) of total uptake of [^177Lu]Lu-DOTA-TATE: 90.2 ± 1.7%
  Membrane (%) of total uptake of [^177Lu]Lu-DOTA-TATE: 7.3 ± 1.0%
  Nucleus (%) of total uptake of [^177Lu]Lu-DOTA-TATE: 2.5 ± 0.7%
[15]; U2OS + SSTR2A cells, 24-hour incubation, 0.74–1.03 MBq, N = 3–4
  Uptake (mBq/cell): 216.9 ± 47.4 mBq/cell
[15]; U2OS + SSTR2A cells, 24-hour incubation, 0.74–1.03 MBq, percentage added activity, N = 3–4
  Uptake (%AA): 17.8 ± 2.4 %AA
[15]; untreated (no chemotherapeutic) U2OS + SSTR2A cells, 24 h, 0.7–1.03 MBq
  Internalized quantities of [^177Lu]Lu-DOTA-TATE: 0.2 ± 0.05 Bq/cell

## Nc1ccn([C@@H]2O[C@H](CO)[C@@H](O)C2(F)F)c(=O)n1 [Gemcitabine, gemcitabine]
[1]
  Effect on viability of combining chemotherapeutic with [^177Lu]Lu-DOTA-TATE: did not affect viability
[2]
  Effect on viability of combining chemotherapeutic with [^177Lu]Lu-DOTA-TATE: did not affect viability
[3]
  GI50: 0.0047 µg/mL (≈ 0.0179 µM)
[4]; [16]
  GI50: 0.0022 µg/mL (≈ 0.00836 µM)
[5]
  potentiation of X-ray radiation effects by chemotherapeutic pre-treatment (viability): potentiation of radiation effects was seen
[6]
  potentiation of X-ray radiation effects by chemotherapeutic pre-treatment (viability): potentiation of radiation effects was seen

## NC(=O)NO [Hydroxyurea, hydroxyurea]
[1]
  Effect on viability of combining chemotherapeutic with [^177Lu]Lu-DOTA-TATE: did not affect viability
[2]
  Effect on viability of combining chemotherapeutic with [^177Lu]Lu-DOTA-TATE: did not affect viability
[4]; N = 3
  GI50: 248.1 (152) µg/mL
[5]
  potentiation of X-ray radiation effects by chemotherapeutic pre-treatment (viability): potentiation of radiation effects was seen
[6]
  potentiation of X-ray radiation effects by chemotherapeutic pre-treatment (viability): potentiation of radiation effects was seen
